# Target: T1, GST-tagged wild-type human CRBN protein (Homo sapiens, UniProt Q96SW2)
# T1 construct: purchased Cisbio 64BDCRBNPEG
# Experiment: Cereblon Binding Assay (Cisbio Cereblon Binding Kit, TR-FRET)
# Conditions: TR-FRET competition with XL665-labelled Thalidomide, room temperature about 3 hours
# Description: In some embodiments, the biological assay may involve evaluation of CRBN binding activity, e.g., in Cereblon Binding Kit (Cisbio, #64BDCRBNPEG).
# In some embodiments, the cell line is maintained and cultured, e.g., at room temperature for about 3 hours.
# In some embodiments, the Fluorescence Resonance Energy Transfer (TR-FRET) measurements of the cell line is recorded and evaluated.
# Procedure for Cereblon Binding Assay. The binding to cereblon (CRBN) was determined using the Cereblon Binding Kit (Cisbio, #64BDCRBNPEG) following the manufacturer's instruction. Briefly, serially diluted compounds were incubated with GST-tagged wild-type human CRBN protein, XL665-labelled Thalidomide and Europium Cryptate labelled GST antibody at room temperature for about 3 hours. […] The readings were normalized to the control (0.5%) and the ICso was calculated by nonlinear regression (four parameters sigmoid fitted with variable slope) analysis using the GraphPad Prism 8 software.
# T1 sequence (Q96SW2 whole entry): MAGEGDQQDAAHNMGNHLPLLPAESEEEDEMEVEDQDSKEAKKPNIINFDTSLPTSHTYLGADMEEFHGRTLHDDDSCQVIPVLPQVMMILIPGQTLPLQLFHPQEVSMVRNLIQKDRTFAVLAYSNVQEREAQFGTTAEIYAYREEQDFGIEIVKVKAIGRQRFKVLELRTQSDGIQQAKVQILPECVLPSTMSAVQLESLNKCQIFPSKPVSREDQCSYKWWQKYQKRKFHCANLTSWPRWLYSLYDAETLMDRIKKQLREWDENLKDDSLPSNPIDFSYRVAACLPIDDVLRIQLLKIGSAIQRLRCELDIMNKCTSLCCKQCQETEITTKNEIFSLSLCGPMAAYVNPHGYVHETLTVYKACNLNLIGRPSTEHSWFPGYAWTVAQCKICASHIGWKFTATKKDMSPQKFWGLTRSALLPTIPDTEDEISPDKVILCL
row,IC50,SMILES
1,> 10000 nM,O=C1CCC(N2C(=O)c3cc4c(cc3C2=O)CC2(CNC2)C4)C(=O)N1 (stereo not shown) [Example 217]
2,1000 to 10000 nM,O=C1CCC(N2Cc3cc4c(cc3C2=O)CC2(CNC2)C4)C(=O)N1 (stereo not shown) [Example 218]
3,1000 to 10000 nM,O=C1CCC(N2C(=O)c3ccc4c(c3C2=O)CNC4)C(=O)N1 (stereo not shown) [Example 219]
4,< 500 nM,COc1c2c(cc3c1CN(C1CCC(=O)NC1=O)C3=O)CN(Cc1ccccc1)C2 (stereo not shown) [Example 220]
5,500 to 1000 nM,O=C1CCC(N2C(=O)c3cc4c(cc3C2=O)CN(Cc2ccc(F)cc2)CC4)C(=O)N1 (stereo not shown) [Example 221]
6,< 500 nM,O=C1CCC(N2Cc3cc4c(cc3C2=O)CN(Cc2ccc(F)cc2)C4)C(=O)N1 (stereo not shown) [Example 222]
7,1000 to 10000 nM,O=C1CCC(N2C(=O)c3cc4c(cc3C2=O)CCN(Cc2ccc(F)cc2)CC4)C(=O)N1 (stereo not shown) [Example 223]
8,< 500 nM,O=C1CCC(N2C(=O)c3cc4c(cc3C2=O)CN(Cc2cccc3c2OCCO3)C4)C(=O)N1 (stereo not shown) [Example 224]
9,< 500 nM,O=C1CCC(N2Cc3cc4c(cc3C2=O)CN(C(=O)c2cccc3c2CCC3)C4)C(=O)N1 (stereo not shown) [Example 225]
10,< 500 nM,O=C1CCC(N2Cc3cc4c(cc3C2=O)CN(C(=O)c2cccc3c2OCO3)C4)C(=O)N1 (stereo not shown) [Example 226]
11,500 to 1000 nM,O=C1CCC(N2C(=O)c3cc4c(cc3C2=O)CN(Cc2ccc(C(F)(F)F)cc2)CCC4)C(=O)N1 (stereo not shown) [Example 227]
12,< 500 nM,O=C1CCC(N2C(=O)c3cc4c(cc3C2=O)CC(CN2CCC(Cc3ccc(F)cc3)CC2)C4)C(=O)N1 (stereo not shown) [Example 228]
13,500 to 1000 nM,O=C1CCC(N2C(=O)c3cc4c(cc3C2=O)CC(CN2CC3(CN(Cc5ccc(F)cc5)C3)C2)C4)C(=O)N1 (stereo not shown) [Example 229]
14,500 to 1000 nM,O=C1CCC(N2Cc3cc4c(cc3C2=O)CN(C2CN(Cc3ccc(F)c(F)c3)C2)C4=O)C(=O)N1 (stereo not shown) [Example 230]
15,500 to 1000 nM,O=C1CCC(N2Cc3cc4c(cc3C2=O)CN(CC2CN(Cc3ccc(F)c(F)c3)C2)C4=O)C(=O)N1 (stereo not shown) [Example 231]
16,500 to 1000 nM,CCN1CC(N2Cc3cc4c(cc3C2=O)CN(C2CCC(=O)NC2=O)C4=O)C1 (stereo not shown) [Example 232]
17,1000 to 10000 nM,CC(=O)N1CC(N2Cc3cc4c(cc3C2=O)CN(C2CCC(=O)NC2=O)C4=O)C1 (stereo not shown) [Example 233]
18,500 to 1000 nM,COc1c2c(cc3c1C(=O)N(C1CCC(=O)NC1=O)C3=O)CN(CC1CN(Cc3ccc(F)cc3Cl)C1)C2 (stereo not shown) [Example 234]
19,500 to 1000 nM,O=C1CCC(N2Cc3cc4c(cc3C2=O)CC2(C4)CN(Cc3ccc(F)cc3)C2)C(=O)N1 (stereo not shown) [Example 235]
20,< 500 nM,O=C(O)CN1Cc2cc3c(cc2C1)C(=O)N(C1CCC(=O)NC1=O)C3=O (stereo not shown) [Example 236]

row,IC50,SMILES
1,< 500 nM,O=C(O)CN1Cc2cc3c(cc2C1)C(=O)N(C1CCC(=O)NC1=O)C3 (stereo not shown) [Example 237]
2,1000 to 10000 nM,O=C(O)CN1CCc2cc3c(cc2C1)C(=O)N(C1CCC(=O)NC1=O)C3=O (stereo not shown) [Example 238]
3,< 500 nM,O=C(O)CCN1Cc2cc3c(cc2C1)C(=O)N(C1CCC(=O)NC1=O)C3=O (stereo not shown) [Example 239]
4,< 500 nM,O=C(O)CCCN1Cc2cc3c(cc2C1)C(=O)N(C1CCC(=O)NC1=O)C3=O (stereo not shown) [Example 240]
5,500 to 1000 nM,O=C(O)CCN1CCc2cc3c(cc2C1)C(=O)N(C1CCC(=O)NC1=O)C3=O (stereo not shown) [Example 241]
6,1000 to 10000 nM,O=C(O)CCCN1CCc2cc3c(cc2C1)C(=O)N(C1CCC(=O)NC1=O)C3=O (stereo not shown) [Example 242]
7,500 to 1000 nM,O=C(O)CN1CCc2cc3c(cc2CC1)C(=O)N(C1CCC(=O)NC1=O)C3=O (stereo not shown) [Example 243]
8,< 500 nM,CNC1CCC(N2Cc3cc4c(cc3C2)C(=O)N(C2CCC(=O)NC2=O)C4=O)CC1 (stereo not shown) [Example 244]
9,< 500 nM,O=C1CCC(N2C(=O)c3cc4c(cc3C2=O)CN(Cc2ccc(F)nc2)C4)C(=O)N1 (stereo not shown) [Example 245]
10,1000 to 10000 nM,O=C1CCC(N2C(=O)c3cc4c(cc3C2=O)CN(Cc2cnc(Cl)nc2)C4)C(=O)N1 (stereo not shown) [Example 246]
11,500 to 1000 nM,O=C1CCC(N2Cc3cc4c(cc3C2)C(=O)N(C2CCC(=O)NC2=O)C4=O)CC1 (stereo not shown) [Example 247]
12,< 500 nM,NC1CCC(N2Cc3cc4c(cc3C2)C(=O)N(C2CCC(=O)NC2=O)C4=O)CC1 (stereo not shown) [Example 248]
13,500 to 1000 nM,O=C1CCC(N2Cc3cc4c(cc3C2)C(=O)N(C2CCC(=O)NC2=O)C4)CC1 (stereo not shown) [Example 249]
14,< 500 nM,O=C1CCC(N2C(=O)c3cc4c(cc3C2=O)CN(C(=O)C2CCC3(CCNCC3)CC2)C4)C(=O)N1 (stereo not shown) [Example 250]
15,500 to 1000 nM,O=C1CCC(N2C(=O)c3cc4c(cc3C2=O)CN(C2CCC(C(=O)O)CC2)C4)C(=O)N1 (stereo not shown) [Example 251]
16,< 500 nM,O=C1CCC(C(=O)N2Cc3cc4c(cc3C2)C(=O)N(C2CCC(=O)NC2=O)C4=O)CC1 (stereo not shown) [Example 252]
17,< 500 nM,O=C1CCC(N2C(=O)c3cc4c(cc3C2=O)CN(C(=O)C2CCNCC2)C4)C(=O)N1 (stereo not shown) [Example 253]
18,< 500 nM,O=C1CCC(N2Cc3cc4c(cc3C2=O)CN(C(=O)C2CCNCC2)C4)C(=O)N1 (stereo not shown) [Example 254]
19,1000 to 10000 nM,O=C1CCC(N2C(=O)c3ccc4c(c3C2=O)CNCC4)C(=O)N1 (stereo not shown) [Example 255]
20,< 500 nM,O=C1CCC(N2Cc3cc4c(cc3C2=O)CN(C2CCNCC2)C4=O)C(=O)N1 (stereo not shown) [Example 256]

row,IC50,SMILES
1,1000 to 10000 nM,O=C1CCC(N2C(=O)c3cc4c(cc3C2=O)CCNCC4)C(=O)N1 (stereo not shown) [Example 257]
2,1000 to 10000 nM,O=C1CCC(N2C(=O)c3cc4c(cc3C2=O)CNCC4)C(=O)N1 (stereo not shown) [Example 258]
3,500 to 1000 nM,O=C1CCC(N2C(=O)c3cc4c(cc3C2=O)CN([C@H]2C[C@H](C(=O)O)C2)C4)C(=O)N1 (stereo partly shown) [Example 259]
4,< 500 nM,O=C1CCC(N2C(=O)c3cc4c(cc3C2=O)CN(C2CNC2)C4)C(=O)N1 (stereo not shown) [Example 260]
5,1000 to 10000 nM,O=C1CCC(N2C(=O)c3cc4c(cc3C2=O)CN(C2CC3(CCNCC3)C2)C4)C(=O)N1 (stereo not shown) [Example 261]
6,1000 to 10000 nM,O=C1CCC(N2C(=O)c3cc4c(cc3C2=O)CN(C2CCCC23CCNCC3)C4)C(=O)N1 (stereo not shown) [Example 262]
7,500 to 1000 nM,O=C1CCC(N2Cc3cc4c(cc3C2=O)CN(CC2CCNCC2)C4)C(=O)N1 (stereo not shown) [Example 263]
8,< 500 nM,O=C1CCC(N2C(=O)c3cc4c(cc3C2=O)CN(C2CCNC2)C4)C(=O)N1 (stereo not shown) [Example 264]
9,500 to 1000 nM,O=C1CCC(N2C(=O)c3cc4c(cc3C2=O)CN(C2CCNCC2)C4)C(=O)N1 (stereo not shown) [Example 265]
10,< 500 nM,O=C1CCC(N2C(=O)c3cc4c(cc3C2=O)CN(C2CCC3(CCNCC3)CC2)C4)C(=O)N1 (stereo not shown) [Example 266]
11,1000 to 10000 nM,O=C1CCC(N2Cc3cc4c(cc3C2=O)CN(C2CCNCC2)C4)C(=O)N1 (stereo not shown) [Example 267]
12,500 to 1000 nM,COC1(CN2Cc3cc4c(cc3C2)C(=O)N(C2CCC(=O)NC2=O)C4=O)CCN(C(=O)OC(C)(C)C)CC1 (stereo not shown) [Example 268]
13,< 500 nM,CC1(CN2Cc3cc4c(cc3C2)C(=O)N(C2CCC(=O)NC2=O)C4=O)CCN(C(=O)OC(C)(C)C)CC1 (stereo not shown) [Example 269]
14,500 to 1000 nM,CC(C)(C)OC(=O)N1CCC(F)(CN2Cc3cc4c(cc3C2)C(=O)N(C2CCC(=O)NC2=O)C4=O)CC1 (stereo not shown) [Example 270]
15,< 500 nM,O=C1CCC(N2C(=O)c3cc4c(cc3C2=O)CN(CC2CN(c3ccc(C(=O)O)cc3)C2)C4)C(=O)N1 (stereo not shown) [Example 271]
16,< 500 nM,O=C1CCC(N2C(=O)c3cc4c(cc3C2=O)CN(CC2CCN(c3ccc(C(=O)O)cc3)CC2)C4)C(=O)N1 (stereo not shown) [Example 272]
17,1000 to 10000 nM,O=C1CCC(N2Cc3cc4c(cc3C2=O)CNC4)C(=O)N1 (stereo not shown) [Example 274]
18,500 to 1000 nM,COc1c2c(cc3c1CN(C1CCC(=O)NC1=O)C3=O)CNC2 (stereo not shown) [Example 275]

# Source: patent US20240166647A1, “Cereblon Ligands” (THE REGENTS OF THE UNIVERSITY OF MICHIGAN, priority 2021, published 2024)
